From patent US20260325655A1, “DECREASING THE INTRINSICALLY DISORDERED PROTEIN ALPHA-SYNUCLEIN’S LEVELS BY TARGETING ITS STRUCTURED MRNA WITH A RIBONUCLEASE TARGETING CHIMERA” (University of Florida Research Foundation, Incorporated, priority 2023, published 2026)
Where two headings read alike, the source gives them in different places.

Tests used:
Type in all cases: cell-based, human
[1] = test system: SH-SY5Y cells; test: cytoprotection of SH-SY5Y cells against α-synuclein pre-formed fibrils (PFF), LDH assay; details: Syn-RIBOTAC vs Synucleozid 2.0
Protocol: Lactate Dehydrogenase (LDH) assay. SH-SY5Y cells in 96-well plates (~60% confluency) were pre-treated with compounds in growth medium for 24 h, followed by addition of 50 ng/μL of human α-synuclein pre-formed fibrils (PFFs, SPR-322 from Eagle Biosciences). The cells were then incubated for an additional 48 h. Cell viability was measured using LDH (Lactate Dehydrogenase) Cytotoxicity Detection Kit (MK401; Takara) according to the manufacturer's instructions.

[2] = test system: PD patient-derived neurons; test: total RNA-seq in PD patient-derived dopaminergic neurons
Protocol: (§1) RNA-seq analysis. Total RNA was quantified using the Qubit 2.0 Fluorometer (Invitrogen) and an Agilent 2100 Bioanalyzer RNA nano chip. Samples with RIN>9.0 were proceeded to library preparation using NEBNext Ultra II Directional RNA Kit (Cat. #E7760, NEB) following manufacture's protocol. Briefly, 200 ng of total RNA was depleted of ribosomal RNA using the NEBNext rRNA Depletion Module. The product was chemically fragmented using NEBNext Magnesium RNA Fragmentation Module (E6150S, NEB) the at 94° C. for 15 min. First-strand synthesis was performed with random primers, and second strand was synthesized with dUTP in place of dTTP. After end repair and 3′ adenylation, the cDNA was ligated with adaptors and then treated with USER enzyme (Uracil-specific excision reagent). The product was PCR amplified with Illumina-barcoded primers to generate the cDNA libraries. The final libraries were analyzed on the bioanalyzer DNA chips, pooled in equimolar ratios, and loaded onto the NextSeq 500 v2.5 flow cell and sequenced with 2×40 bp paired-end chemistry. The raw data were aligned to the human genome using STAR.^11 Read counts were extracted using featureCounts,^12 and the differential gene analysis was performed using Deseq2.^13
Dopamine neuron induction. For dopamine neuronal induction,^15,16 the dual-SMAD inhibition method^17 was used for floor plate (FP)-based midbrain dopamine (DA) neuron induction with modifications. Prior to differentiation, Matrigel matrix (BD) was thawed at 4° C. overnight or on ice until it is dissolved. Matrigel coated 6-well plates were prepared according to manufacturer's instructions and incubated at 37° C. for at least 1 h before use. iPSCs were dissociated with Accutase (STEMCELL Technologies) and plated (3.5×10^5-4×10^5 cells per cm^2) into a new Matrigel coated plate and grown in mTeSR medium (STEMCELL Technologies) with StemBeads FGF2 (StemCultures) and ROCK inhibitor Y27632 (5 μM, Tocris). After 24 to 48 h, when the cells reached 100% confluency, the differentiation protocol was initiated by feeding the cells with DMEM containing 15% KnockOut Serum Replacement (KSR, Gibco), 2 mM L-glutamine (L-Glut) and 10 μM β-mercaptoethanol for 11 days.
Floor Plate (FP) induction protocol was followed based on timed exposure to BMP inhibitor LDN193189 (100 nM, PeproTech), ALK inhibitor SB431542 (10 μM, Tocris), recombinant mouse sonic hedgehog N-terminus SHH C25II (100 ng/ml, R&D), Smoothened agonist Purmorphamine (2 μM, PeproTech) and GSK3 inhibitor CHIR99021 (CHIR; 3 μM, PeproTech). KSR medium was gradually shifted to N2 medium (Neurobasal/N2 with B27 Plus Supplement; Gibco) starting on day 5 of differentiation as described previously.^18 On day 11, the medium was changed to Neurobasal/B27/L-Glut containing medium (NB/B27; Gibco) supplemented with CHIR (until day 13) and with BDNF (20 ng/ml; PeproTech), ascorbic acid (0.2 mM), GDNF (20 ng/ml; PeproTech), dibutyryl cAMP (0.5 mM; PeproTech), TGFβ3 (1 ng/ml; PeproTech), and γ-secretase inhibitor DAPT (10 μM; PeproTech) for 9 days. On Day 20 and Day 30 (midbrain DA neuron precursor stages), cells were dissociated using Accutase and replated at high cell density (8× 10^5 cells per cm^2) in dishes pre-coated with 15 μg/ml polyornithine/1 μg/ml laminin/2 μg/ml fibronectin in differentiation medium (NB/B27+BDNF, ascorbic acid, GDNF, dbcAMP, TGFβ3 and DAPT). […]

[3] = test system: SH-SY5Y cells; test: transcriptome-wide RNA-seq in SH-SY5Y cells; details: for inhibition at 2 µM: Homo sapiens, not statistically significant
Protocol: as §1

[4] = among 461 genes significantly downregulated in PD neurons
[5] = among 976 genes significantly upregulated in PD neurons
[6] = of 447 detectable IRE-containing mRNAs

- hexokinase 2 (HK2) expression ([2]; PD patient-derived neurons, only gene besides SNCA): significantly decreased
SMILES: CCOC(=O)C1=C(Nc2ccccc2)S/C(=C\c2ccc(OCCOCCOCCOCCNC(=O)CCCOc3ccc(-n4c(SCC(=O)Nc5ccc6cn[nH]c6c5)nnc4-c4ccncc4)cc3)c(O)c2)C1=O [Syn-RiboTAC]
- cytoprotective effect relative to the binding small molecule [1]: 5 -fold
- number of PD-downregulated genes improved [2, 4]: 223
- percent of PD-downregulated genes improved [2, 4]: 48%
- number of PD-upregulated genes improved (decreased) [2, 5]: 488
- percent of PD-upregulated genes improved (decreased) [2, 5]: 50%
- number of genes downregulated ([3]; 2 μM, of 30,175 genes detected): 34
- number of genes upregulated ([3]; 2 μM, of 30,175 genes detected): 14
- percent of genes affected ([3]; 2 μM, of 30,175 genes detected): 0.16%
- number of genes affected ([3]; 2 μM, of 30,175 genes detected, log 2fold change >0.58, p<0.05): 48
- inhibition at 2 µM ([3]; SH-SY5Y, RNA-seq, read-out: reduction of BLVRB transcript level): ~20%
- inhibition at 2 µM ([3]; SH-SY5Y, RNA-seq, read-out: reduction of SNCA transcript abundance by RNA-seq): ~35%
- APP, ferritin, and TfR transcript levels in the RNA-seq data ([3]; RNA-seq, SH-SY5Y): unaffected
- number of bound transcripts whose levels were reduced (cleaved) ([3]; of 38 Chem-CLIP-bound transcripts detected in RNA-seq, including SNCA): four
- number of IRE-containing mRNAs affected [3, 6]: 19
- number of IRE-containing mRNAs downregulated [3, 6]: 11
- number of IRE-containing mRNAs upregulated [3, 6]: 8
